Source: publication PMC4018220 (Transplantation, 2014)
Where two headings read alike, the source gives them in different places.

Assays:
[1] = for Median [IQR] AUC: TAC, all weeks, dose and weight adjusted
[2] = cited from earlier work
[3] = clinical; conditions: human, in vivo

C=CC[C@@H]1/C=C(\C)C[C@H](C)C[C@H](OC)[C@H]2O[C@@](O)(C(=O)C(=O)N3CCCC[C@H]3C(=O)O[C@H](/C(C)=C/[C@@H]3CC[C@@H](O)[C@H](OC)C3)[C@H](C)[C@@H](O)CC1=O)[C@H](C)C[C@@H]2OC [TAC, tacrolimus]
Change in AUC over time ([1]; NNRTIs dosed with TAC): No change | Increase over time of dose and weight adjusted AUC ([1]; TAC given with protease inhibitors with or without NNRTIs): ~ 30% | Change of Tmax over time ([1]; TAC with NNRTIs alone): decreased | Change of Tmax over time ([1]; TAC with combination PI+NNRTIs): doubled | Median [IQR] AUC ([1]; +NNRTI): 3142 [2121-5157] ng*hr/mL/mg/kg | Median [IQR] AUC ([1]; +PI): 26889 [17208-42250] ng*hr/mL/mg/kg | Median [IQR] AUC ([1]; +PI/NNRTI): 12587 [8524-18780] ng*hr/mL/mg/kg | Median Tac Cx ([1]; W2, C0, NNRTI (n=4)): 199 ng/mL/mg/kg | Median Tac Cx ([1]; W2, C0, PI (n=4)): 963 ng/mL/mg/kg | Median Tac Cx ([1]; W2, C1, NNRTI (n=4)): 225 ng/mL/mg/kg | Median Tac Cx ([1]; W2, C1, PI (n=4)): 1045 ng/mL/mg/kg | Median Tac Cx ([1]; W2, C2, NNRTI (n=4)): 338 ng/mL/mg/kg | Median Tac Cx ([1]; W2, C2, PI (n=4)): 1687 ng/mL/mg/kg | Median Tac Cx ([1]; W2, C3, NNRTI (n=4)): 280 ng/mL/mg/kg | Median Tac Cx ([1]; W2, C3, PI (n=4)): 2325 ng/mL/mg/kg | Median Tac Cx ([1]; W2, C4, NNRTI (n=4)): 272 ng/mL/mg/kg | Median Tac Cx ([1]; W2, C4, PI (n=4)): 2332 ng/mL/mg/kg | Median Tac Cx ([1]; W12, C0, NNRTI (n=4)): 213 ng/mL/mg/kg | Median Tac Cx ([1]; W12, C0, PI (n=4)): 638 ng/mL/mg/kg | Median Tac Cx ([1]; W12, C1, NNRTI (n=4)): 420 ng/mL/mg/kg | Median Tac Cx ([1]; W12, C1, PI (n=4)): 1590 ng/mL/mg/kg | Median Tac Cx ([1]; W12, C2, NNRTI (n=4)): 368 ng/mL/mg/kg | Median Tac Cx ([1]; W12, C2, PI (n=4)): 2049 ng/mL/mg/kg | Median Tac Cx ([1]; W12, C3, NNRTI (n=4)): 290 ng/mL/mg/kg | Median Tac Cx ([1]; W12, C3, PI (n=4)): 2341 ng/mL/mg/kg | Median Tac Cx ([1]; W12, C4, NNRTI (n=4)): 296 ng/mL/mg/kg | Median Tac Cx ([1]; W12, C4, PI (n=4)): 2550 ng/mL/mg/kg | Median Tac Cx ([1]; W28, C0, NNRTI (n=3)): 193 ng/mL/mg/kg | Median Tac Cx ([1]; W28, C1, NNRTI (n=3)): 497 ng/mL/mg/kg | Median Tac Cx ([1]; W28, C2, NNRTI (n=3)): 368 ng/mL/mg/kg | Median Tac Cx ([1]; W28, C3, NNRTI (n=3)): 275 ng/mL/mg/kg | Median Tac Cx ([1]; W28, C4, NNRTI (n=3)): 223 ng/mL/mg/kg | Median Tac Cx ([1]; W52, C0, NNRTI (n=4)): 148 ng/mL/mg/kg | Median Tac Cx ([1]; W52, C1, NNRTI (n=4)): 301 ng/mL/mg/kg | Median Tac Cx ([1]; W52, C2, NNRTI (n=4)): 322 ng/mL/mg/kg | Median Tac Cx ([1]; W52, C3, NNRTI (n=4)): 242 ng/mL/mg/kg | Median Tac Cx ([1]; W52, C4, NNRTI (n=4)): 208 ng/mL/mg/kg | Association of higher TAC levels with new onset DM (OR) ([2]; HCV-positive liver transplant, p=0.12): 2.21 | Correlation of higher TAC trough levels with rejection ([2]; NIH multicenter trial): decreased rejection rates | Tmax [3]: 2 to 3 h
